Experimental data: PubChem BioAssay (NCI)
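The concentration for 50% growth inhibition is given as GI50. TGI is the concentration that stops growth completely.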

Experiments:
Test in all cases: NCI-60 cell line screen, 384-well format
SK-OV-3 ovarian = tested on: SK-OV-3 ovarian
IGROV1 ovarian = tested on: IGROV1 ovarian
MDA-MB-435 melanoma = tested on: MDA-MB-435 melanoma
A498 renal = tested on: A498 renal
KM12 colon = tested on: KM12 colon
LOX IMVI melanoma = tested on: LOX IMVI melanoma
SK-MEL-5 melanoma = tested on: SK-MEL-5 melanoma
SNB-75 CNS = tested on: SNB-75 CNS
MOLT-4 leukemia = tested on: MOLT-4 leukemia
NCI-H226 lung = tested on: NCI-H226 lung
HCC-2998 colon = tested on: HCC-2998 colon
RXF 393 renal = tested on: RXF 393 renal
K-562 leukemia = tested on: K-562 leukemia
BT-549 breast = tested on: BT-549 breast
OVCAR-5 ovarian = tested on: OVCAR-5 ovarian
OVCAR-3 ovarian = tested on: OVCAR-3 ovarian
HL-60(TB) leukemia = tested on: HL-60(TB) leukemia
HCT-15 colon = tested on: HCT-15 colon
SK-MEL-28 melanoma = tested on: SK-MEL-28 melanoma
SR leukemia = tested on: SR leukemia
MCF7 breast = tested on: MCF7 breast
HT29 colon = tested on: HT29 colon
MALME-3M melanoma = tested on: MALME-3M melanoma
RPMI-8226 leukemia = tested on: RPMI-8226 leukemia
SF-539 CNS = tested on: SF-539 CNS
EKVX NSCLC = tested on: EKVX NSCLC
NCI/ADR-RES ovarian = tested on: NCI/ADR-RES ovarian
SW-620 colon = tested on: SW-620 colon
PC-3 prostate = tested on: PC-3 prostate
CAKI-1 renal = tested on: CAKI-1 renal
MDA-MB-468 breast = tested on: MDA-MB-468 breast
MDA-MB-231 breast = tested on: MDA-MB-231 breast
NCI-H460 NSCLC = tested on: NCI-H460 NSCLC
SF-268 CNS = tested on: SF-268 CNS
HCT-116 colon = tested on: HCT-116 colon
NCI-H522 lung = tested on: NCI-H522 lung
NCI-H322M lung = tested on: NCI-H322M lung
HS 578T breast = tested on: HS 578T breast
U251 glioblastoma = tested on: U251 glioblastoma
A549 NSCLC = tested on: A549 NSCLC

Cc1c(F)c(N)c2c(=O)cc(-c3ccc(N)c(F)c3)oc2c1F
GI50 (SK-OV-3 ovarian): 29.3 µM
TGI (SK-OV-3 ovarian): > 100 µM
GI50 (IGROV1 ovarian): < 0.01 µM
GI50 (MDA-MB-435 melanoma): 34.9 µM
TGI (MDA-MB-435 melanoma): > 100 µM
GI50 (A498 renal): < 0.01 µM
TGI (A498 renal): 0.13 µM
GI50 (KM12 colon): 93 µM
TGI (KM12 colon): > 100 µM
GI50 (LOX IMVI melanoma): > 100 µM
TGI (LOX IMVI melanoma): > 100 µM
GI50 (SK-MEL-5 melanoma): < 0.01 µM
TGI (SK-MEL-5 melanoma): > 100 µM
GI50 (SNB-75 CNS): 10.8 µM
TGI (SNB-75 CNS): 25.2 µM
GI50 (MOLT-4 leukemia): 85.1 µM
TGI (MOLT-4 leukemia): > 100 µM
GI50 (NCI-H226 lung): < 0.01 µM
GI50 (HCC-2998 colon): < 0.01 µM
TGI (HCC-2998 colon): > 100 µM
GI50 (RXF 393 renal): 10.5 µM
TGI (RXF 393 renal): 31.5 µM
GI50 (K-562 leukemia): 1.75 µM
GI50 (BT-549 breast): 16.4 µM
TGI (BT-549 breast): 40.4 µM
GI50 (OVCAR-5 ovarian): < 0.01 µM
GI50 (OVCAR-3 ovarian): 0.0251 µM
TGI (OVCAR-3 ovarian): 37.9 µM
GI50 (HL-60(TB) leukemia): 0.157 µM
TGI (HL-60(TB) leukemia): > 100 µM
GI50 (HCT-15 colon): > 100 µM
TGI (HCT-15 colon): > 100 µM
GI50 (SK-MEL-28 melanoma): > 100 µM
TGI (SK-MEL-28 melanoma): > 100 µM
GI50 (SR leukemia): 4.12 µM
TGI (SR leukemia): > 100 µM
GI50 (MCF7 breast): < 0.01 µM
TGI (MCF7 breast): 0.0338 µM
GI50 (HT29 colon): > 100 µM
TGI (HT29 colon): > 100 µM
GI50 (MALME-3M melanoma): 28.6 µM
TGI (MALME-3M melanoma): 86.5 µM
GI50 (RPMI-8226 leukemia): 14.2 µM
TGI (RPMI-8226 leukemia): > 100 µM
GI50 (SF-539 CNS): 28 µM
TGI (SF-539 CNS): > 100 µM
GI50 (EKVX NSCLC): 2.98 µM
TGI (EKVX NSCLC): > 100 µM
GI50 (NCI/ADR-RES ovarian): 14.1 µM
TGI (NCI/ADR-RES ovarian): > 100 µM
GI50 (SW-620 colon): > 100 µM
TGI (SW-620 colon): > 100 µM
GI50 (PC-3 prostate): > 100 µM
TGI (PC-3 prostate): > 100 µM
GI50 (CAKI-1 renal): < 0.01 µM
TGI (CAKI-1 renal): > 100 µM
GI50 (MDA-MB-468 breast): < 0.01 µM
GI50 (MDA-MB-231 breast): 26.7 µM
TGI (MDA-MB-231 breast): > 100 µM
GI50 (NCI-H460 NSCLC): < 0.01 µM
TGI (NCI-H460 NSCLC): > 100 µM
GI50 (SF-268 CNS): 23.2 µM
TGI (SF-268 CNS): 97.6 µM
GI50 (HCT-116 colon): 28 µM
TGI (HCT-116 colon): > 100 µM
GI50 (NCI-H522 lung): 9.4 µM
TGI (NCI-H522 lung): 43.1 µM
GI50 (NCI-H322M lung): 24.3 µM
TGI (NCI-H322M lung): > 100 µM
GI50 (HS 578T breast): 10.7 µM
TGI (HS 578T breast): 29.5 µM
GI50 (U251 glioblastoma): 18 µM
TGI (U251 glioblastoma): > 100 µM
GI50 (A549 NSCLC): 29.9 µM
TGI (A549 NSCLC): > 100 µM
